Starred links: 1 amine or outer side, 2 acyl side, 3 side chain; linkers in the order of their positions; H or OH if unused. Positions of bridges follow the written chain, without caps; N, C: chain ends. Residues, ends and D or L forms follow the SMILES beside them. *: point of attachment. C18 diacid = O=C(O)CCCCCCCCCCCCCCCCC(=O)*; γGlu = O=C(O)[C@H](CCC(=O)[*:2])N[*:1]
Assay: Mouse growth study (tail and body length)
Type: in vivo, mice (C57BL/6J)
Settings: for body length higher compared to control group: 35 days; for change in tail length (from day 0) increased compared to control animals: after 35 days; for Tail length, Mean (%) change from day 0 / Body length, Mean (%) change from day 0: C57BL/6J mice
Description: The purpose of this study was to evaluate growth in mice after treatment with two doses of CNP compound.
Procedure: Mice (C57BL/6J, male, age 4 weeks; n=10) received daily subcutaneous injections of compound 9482 or vehicle for 35 days. Formulations were prepared according to the principles described in General Methods of Preparation—Method G (30 and 70 nmol/kg, 10 mL/kg; Formulation buffer 8 mM sodium phosphate, 250 mM glycerol, 0.007% polysorbate 20, pH 7.4). Body weight and tail and body length were measured weekly throughout the study. The increase in growth was expressed as percentage change from day (mean (SD)).
In Table 28, increase in tail length is expressed as percentage change from day 0 (mean (SD)). Statistically significant differences are indicated compared to control group (two-way ANOVA).
In Table 29, increase in body length is expressed as percentage change from day 0 (mean (SD)). Statistically significant differences are indicated compared to control group (two-way ANOVA).

[1] = both 30 and 70 nmol/kg daily s.c., p<0.05

CC[C@H](C)[C@@H]1NC(=O)[C@H](CCCNC(=N)N)NC(=O)[C@H](CC(=O)O)NC(=O)[C@H](CC(C)C)NC(=O)[C@@H]2CCCN2C(=O)[C@H](CC(C)C)NC(=O)CNC(=O)[C@H](Cc2ccccc2)NC(=O)[C@@H](NC(=O)CNC(=O)[C@H](CO)NC(=O)[C@H](CO)NC(=O)[C@H](CC(C)C)NC(=O)CNC(=O)[C@H](CCCCN)NC(=O)[C@H](CCCCN)NC(=O)[C@H](CCC(N)=O)NC(=O)[C@H](C)NC(=O)CNC(=O)[C@H](CCCCN)NC(=O)[C@H](Cc2ccc(O)cc2)NC(=O)[C@H](CCCCN)NC(=O)[C@H](CCCNC(=N)N)NC(=O)[C@H](C)NC(=O)[C@H](CCC(N)=O)NC(=O)[C@@H]2CCCN2C(=O)[C@H](Cc2c[nH]cn2)NC(=O)[C@H](CCC(=O)O)NC(=O)[C@H](CCC(N)=O)NC(=O)CC[C@H](NC(=O)CC[C@H](NC(=O)CC[C@H](NC(=O)CC[C@H](NC(=O)CC[C@H](NC(=O)CCCCCCCCCCCCCCCCC(=O)O)C(=O)O)C(=O)O)C(=O)O)C(=O)O)C(=O)O)CSSC[C@@H](C(=O)O)NC(=O)CNC(=O)[C@H](CC(C)C)NC(=O)CNC(=O)[C@H](CO)NC(=O)[C@H](CC(C)C)NC(=O)[C@H](CO)NC(=O)CNC1=O [compound 9482] ({C18 diacid-γGlu-γGlu-γGlu-γGlu-γGlu}-QEHPQARKYKGAQKKGLSSGCFGLPLDRIGSLSGLGC-OH; disulfide 21-37)
body length higher compared to control group (30 nmol/kg daily s.c.): 30%
change in tail length (from day 0) increased compared to control animals (30 nmol/kg daily s.c.): 45%
Tail length, Mean (%) change from day 0 (30 nmol/kg daily s.c., day 7): 11.8%
Body length, Mean (%) change from day 0 (30 nmol/kg daily s.c., day 8): 10.2%
Tail length, Mean (%) change from day 0 (30 nmol/kg daily s.c., day 14): 16.0%
Body length, Mean (%) change from day 0 (30 nmol/kg daily s.c., day 18): 17.5%
Tail length, Mean (%) change from day 0 (30 nmol/kg daily s.c., day 21): 24.1%
Body length, Mean (%) change from day 0 (30 nmol/kg daily s.c., day 25): 22.5%
Tail length, Mean (%) change from day 0 (30 nmol/kg daily s.c., day 28): 25.6%
Body length, Mean (%) change from day 0 (30 nmol/kg daily s.c., day 35): 27.4%
Tail length, Mean (%) change from day 0 (30 nmol/kg daily s.c., day 35): 28.5%
body length higher compared to control group (70 nmol/kg daily s.c.): 67%
change in tail length (from day 0) increased compared to control animals (70 nmol/kg daily s.c.): 83%
Tail length, Mean (%) change from day 0 (70 nmol/kg daily s.c., day 7): 14.3%
Body length, Mean (%) change from day 0 (70 nmol/kg daily s.c., day 8): 12.8%
Tail length, Mean (%) change from day 0 (70 nmol/kg daily s.c., day 14): 20.3%
Body length, Mean (%) change from day 0 (70 nmol/kg daily s.c., day 18): 21.5%
Tail length, Mean (%) change from day 0 (70 nmol/kg daily s.c., day 21): 29.0%
Body length, Mean (%) change from day 0 (70 nmol/kg daily s.c., day 25): 29.0%
Tail length, Mean (%) change from day 0 (70 nmol/kg daily s.c., day 28): 32.0%
Body length, Mean (%) change from day 0 (70 nmol/kg daily s.c., day 35): 35.3%
Tail length, Mean (%) change from day 0 (70 nmol/kg daily s.c., day 35): 35.7%
time after which body length was significantly increased compared to control [1]: 18 days
time after which tail length was significantly increased compared to control [1]: 7 days

From US20240209028A1, “CNP COMPOUNDS” (priority 2022, published 2024)
